Experimental data published in article PMC6409085, “Three odorant-binding proteins are involved in the behavioral response of Sogatella furcifera to rice plant volatiles” (PeerJ, 2019).
Values joined by “and” are separate entries in the source; they are usually repeats but may differ in a detail not shown here. Identical values can stand only once.

Legend:
Assay in all cases: biochemical
Type in all cases: binding
[1] = target: SfurOBP1 (Sogatella furcifera, UniProt V5T8N5); settings: OBP1, three replicate columns
SfurOBP1, sequence (V5T8N5 entry or part of it): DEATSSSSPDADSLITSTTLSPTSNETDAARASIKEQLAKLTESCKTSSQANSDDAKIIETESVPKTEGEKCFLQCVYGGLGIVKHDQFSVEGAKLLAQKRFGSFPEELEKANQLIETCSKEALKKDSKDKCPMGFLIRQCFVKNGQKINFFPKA
Procedure: (§1) Thirty-six rice odorants ([He et al., 2014]; [Wang et al., 2017]) and 1-N-phenyl-naphthylamine (1-NPN) were purchased from Sigma-Aldrich (St Louis, MO, USA). These odorants and 1-NPN were dissolved in high-performance liquid chromatography (HPLC) purify grade methanol for 1.0 mM as work solution.
(§2) Fluorescence competitive binding assays were performed on Tecan Spark 10M (Tecan Group Ltd., Männedorf, Switzerland) with the F96 Black ELIAS Plate (Sangon) ([Khuhro et al., 2017]; [Liu et al., 2017]). The solutions were excited at 337 nm and emission spectra were recorded between 390 and 490 nm. First, to test the binding constants of 1-NPN to the SfurOBPs, a 2.0 µM solution of protein in 50 mM Tris-HCl (pH = 7.4) was titrated with 1 mM 1-NPN to achieve virous concentrations. Next, the competitive binding of each odorant was measured using the 1-NPN as fluorescent reporter and odorant as competitor. The concentrations of protein and 1-NPN were both 2.0 µM, the odorant added after protein and 1-NPN added into the well of ELIAS Plate for 2 min. The final concentrations of each competitor were 2, 4, 6, 8, 10, 12, 14, 16, 18 and 20 µM. After 2 min of odorant added, the fluorescence intensity was measured and recorded. The volume of mixed solution in each well was maintained at 250 µL. Each interaction was performed in triplicates.
(§3) GraphPad Prism 7.0 software (GraphPad Software, Inc., La Jolla, CA, USA) was used to calculated and generated the binding constants (K1−NPN) of 1-NPN to SfurOBPs and relative Scatchard plots ([Ban et al., 2003]; [Li et al., 2016]). Dissociation constant (Ki) of each odorant to SfurOBP was computed from the corresponding IC50 value (the half maximal inhibitory concentration), using the following equation: Ki=[IC50]/(1 + [1-NPN]/K1−NPN), where [1-NPN] is the free concentration of 1-NPN and K1−NPN is the dissociation constant of the complex protein/1-NPN.

[2] = target: SfurOBP2 (Sogatella furcifera, UniProt V5T759)
SfurOBP2, sequence (V5T759 entry or part of it): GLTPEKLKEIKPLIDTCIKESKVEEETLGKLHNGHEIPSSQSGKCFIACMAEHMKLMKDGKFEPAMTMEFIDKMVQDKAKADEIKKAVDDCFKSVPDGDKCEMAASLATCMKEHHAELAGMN
Procedure: as §1, §2, §3

[3] = target: SfurOBP11 (Sogatella furcifera, UniProt V5T6E3)
SfurOBP11, sequence (V5T6E3 entry or part of it): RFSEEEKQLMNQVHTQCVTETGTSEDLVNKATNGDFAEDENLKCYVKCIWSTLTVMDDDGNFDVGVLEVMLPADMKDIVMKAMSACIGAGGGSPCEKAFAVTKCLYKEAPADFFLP
Procedure: as §1, §2, §3

[4] = target: SfurOBP3 (Sogatella furcifera, UniProt V5T818); settings: OBP3, three replicate columns
SfurOBP3, sequence (V5T818 entry or part of it): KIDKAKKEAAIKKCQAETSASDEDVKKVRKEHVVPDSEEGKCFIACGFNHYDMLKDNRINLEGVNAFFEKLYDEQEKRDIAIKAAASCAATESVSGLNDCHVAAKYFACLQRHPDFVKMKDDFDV
Procedure: as §1, §2, §3

Fluorescence competitive binding assay, fluorescence intensity ([1]; ligand concentration 2 (μM)): 6756 and 5373 and 6005 | Fluorescence competitive binding assay, fluorescence intensity ([1]; ligand concentration 4 (μM)): 6244 and 6492 and 6739 | Fluorescence competitive binding assay, fluorescence intensity ([1]; ligand concentration 6 (μM)): 6349 and 5828 and 6089 | Fluorescence competitive binding assay, fluorescence intensity ([1]; ligand concentration 8 (μM)): 6071 and 5880 and 6063 | Fluorescence competitive binding assay, fluorescence intensity ([1]; ligand concentration 10 (μM)): 6080 and 6185 and 6121 | Fluorescence competitive binding assay, fluorescence intensity ([1]; ligand concentration 12 (μM)): 5959 and 5941 and 5922 | Fluorescence competitive binding assay, fluorescence intensity ([1]; ligand concentration 14 (μM)): 6211 and 5589 and 5885 | Fluorescence competitive binding assay, fluorescence intensity ([1]; ligand concentration 16 (μM)): 6060 and 6168 and 5508 | Fluorescence competitive binding assay, fluorescence intensity ([1]; ligand concentration 18 (μM)): 6493 and 6572 and 6293 | Fluorescence competitive binding assay, fluorescence intensity ([1]; ligand concentration 20 (μM)): 7139 and 6435 and 6856 | Fluorescence competitive binding assay, OBP2 (raw fluorescence reading) ([2]; ligand concentration 2 (unit not given), replicate column 1 of 3): 18255 | Fluorescence competitive binding assay, OBP2 (raw fluorescence reading) ([2]; ligand concentration 2 (unit not given), replicate column 2 of 3): 18056 | Fluorescence competitive binding assay, OBP2 (raw fluorescence reading) ([2]; ligand concentration 2 (unit not given), replicate column 3 of 3): 17857 | Fluorescence competitive binding assay, OBP2 (raw fluorescence reading) ([2]; ligand concentration 4 (unit not given), replicate column 1 of 3): 17231 | Fluorescence competitive binding assay, OBP2 (raw fluorescence reading) ([2]; ligand concentration 4 (unit not given), replicate column 2 of 3): 17998 | Fluorescence competitive binding assay, OBP2 (raw fluorescence reading) ([2]; ligand concentration 4 (unit not given), replicate column 3 of 3): 18274 | Fluorescence competitive binding assay, OBP2 (raw fluorescence reading) ([2]; ligand concentration 6 (unit not given), replicate column 1 of 3): 16096 | Fluorescence competitive binding assay, OBP2 (raw fluorescence reading) ([2]; ligand concentration 6 (unit not given), replicate column 2 of 3): 17472 | Fluorescence competitive binding assay, OBP2 (raw fluorescence reading) ([2]; ligand concentration 6 (unit not given), replicate column 3 of 3): 18707 | Fluorescence competitive binding assay, OBP2 (raw fluorescence reading) ([2]; ligand concentration 8 (unit not given), replicate column 1 of 3): 16149 | Fluorescence competitive binding assay, OBP2 (raw fluorescence reading) ([2]; ligand concentration 8 (unit not given), replicate column 2 of 3): 16678 | Fluorescence competitive binding assay, OBP2 (raw fluorescence reading) ([2]; ligand concentration 8 (unit not given), replicate column 3 of 3): 16908 | Fluorescence competitive binding assay, OBP2 (raw fluorescence reading) ([2]; ligand concentration 10 (unit not given), replicate column 1 of 3): 15320 | Fluorescence competitive binding assay, OBP2 (raw fluorescence reading) ([2]; ligand concentration 10 (unit not given), replicate column 2 of 3): 15081 | Fluorescence competitive binding assay, OBP2 (raw fluorescence reading) ([2]; ligand concentration 10 (unit not given), replicate column 3 of 3): 16366 | Fluorescence competitive binding assay, OBP2 (raw fluorescence reading) ([2]; ligand concentration 12 (unit not given), replicate column 1 of 3): 14706 | Fluorescence competitive binding assay, OBP2 (raw fluorescence reading) ([2]; ligand concentration 12 (unit not given), replicate column 2 of 3): 15645 | Fluorescence competitive binding assay, OBP2 (raw fluorescence reading) ([2]; ligand concentration 12 (unit not given), replicate column 3 of 3): 15214 | Fluorescence competitive binding assay, OBP2 (raw fluorescence reading) ([2]; ligand concentration 14 (unit not given), replicate column 1 of 3): 14108 | Fluorescence competitive binding assay, OBP2 (raw fluorescence reading) ([2]; ligand concentration 14 (unit not given), replicate column 2 of 3): 14696 | Fluorescence competitive binding assay, OBP2 (raw fluorescence reading) ([2]; ligand concentration 14 (unit not given), replicate column 3 of 3): 15283 | Fluorescence competitive binding assay, OBP2 (raw fluorescence reading) ([2]; ligand concentration 16 (unit not given), replicate column 1 of 3): 14285 | Fluorescence competitive binding assay, OBP2 (raw fluorescence reading) ([2]; ligand concentration 16 (unit not given), replicate column 2 of 3): 14484 | Fluorescence competitive binding assay, OBP2 (raw fluorescence reading) ([2]; ligand concentration 16 (unit not given), replicate column 3 of 3): 14085 | Fluorescence competitive binding assay, OBP2 (raw fluorescence reading) ([2]; ligand concentration 18 (unit not given), replicate column 1 of 3): 14063 | Fluorescence competitive binding assay, OBP2 (raw fluorescence reading) ([2]; ligand concentration 18 (unit not given), replicate column 2 of 3): 14665 | Fluorescence competitive binding assay, OBP2 (raw fluorescence reading) ([2]; ligand concentration 18 (unit not given), replicate column 3 of 3): 14360 | Fluorescence competitive binding assay, OBP2 (raw fluorescence reading) ([2]; ligand concentration 20 (unit not given), replicate column 1 of 3): 13793 | Fluorescence competitive binding assay, OBP2 (raw fluorescence reading) ([2]; ligand concentration 20 (unit not given), replicate column 2 of 3): 14314 | Fluorescence competitive binding assay, OBP2 (raw fluorescence reading) ([2]; ligand concentration 20 (unit not given), replicate column 3 of 3): 13272 | Fluorescence intensity, fluorescence competitive binding assay, OBP11 ([3]; ligand concentration 2, replicate 1): 28052 | Fluorescence intensity, fluorescence competitive binding assay, OBP11 ([3]; ligand concentration 2, replicate 2): 24884 | Fluorescence intensity, fluorescence competitive binding assay, OBP11 ([3]; ligand concentration 2, replicate 3): 25998 | Fluorescence intensity, fluorescence competitive binding assay, OBP11 ([3]; ligand concentration 4, replicate 1): 25234 | Fluorescence intensity, fluorescence competitive binding assay, OBP11 ([3]; ligand concentration 4, replicate 2): 27203 | Fluorescence intensity, fluorescence competitive binding assay, OBP11 ([3]; ligand concentration 4, replicate 3): 25942 | Fluorescence intensity, fluorescence competitive binding assay, OBP11 ([3]; ligand concentration 6, replicate 1): 26005 | Fluorescence intensity, fluorescence competitive binding assay, OBP11 ([3]; ligand concentration 6, replicate 2): 24895 | Fluorescence intensity, fluorescence competitive binding assay, OBP11 ([3]; ligand concentration 6, replicate 3): 23079 | Fluorescence intensity, fluorescence competitive binding assay, OBP11 ([3]; ligand concentration 8, replicate 1): 23239 | Fluorescence intensity, fluorescence competitive binding assay, OBP11 ([3]; ligand concentration 8, replicate 2): 23328 | Fluorescence intensity, fluorescence competitive binding assay, OBP11 ([3]; ligand concentration 8, replicate 3): 24337 | Fluorescence intensity, fluorescence competitive binding assay, OBP11 ([3]; ligand concentration 10, replicate 1): 23466 | Fluorescence intensity, fluorescence competitive binding assay, OBP11 ([3]; ligand concentration 10, replicate 2): 24012 | Fluorescence intensity, fluorescence competitive binding assay, OBP11 ([3]; ligand concentration 10, replicate 3): 22919 | Fluorescence intensity, fluorescence competitive binding assay, OBP11 ([3]; ligand concentration 12, replicate 1): 20499 | Fluorescence intensity, fluorescence competitive binding assay, OBP11 ([3]; ligand concentration 12, replicate 2): 21796 | Fluorescence intensity, fluorescence competitive binding assay, OBP11 ([3]; ligand concentration 12, replicate 3): 19860 | Fluorescence intensity, fluorescence competitive binding assay, OBP11 ([3]; ligand concentration 14, replicate 1): 20110 | Fluorescence intensity, fluorescence competitive binding assay, OBP11 ([3]; ligand concentration 14, replicate 2): 20124 | Fluorescence intensity, fluorescence competitive binding assay, OBP11 ([3]; ligand concentration 14, replicate 3): 20151 | Fluorescence intensity, fluorescence competitive binding assay, OBP11 ([3]; ligand concentration 16, replicate 1): 18498 | Fluorescence intensity, fluorescence competitive binding assay, OBP11 ([3]; ligand concentration 16, replicate 2): 20828 | Fluorescence intensity, fluorescence competitive binding assay, OBP11 ([3]; ligand concentration 16, replicate 3): 20812 | Fluorescence intensity, fluorescence competitive binding assay, OBP11 ([3]; ligand concentration 18, replicate 1): 20721 | Fluorescence intensity, fluorescence competitive binding assay, OBP11 ([3]; ligand concentration 18, replicate 2): 21669 | Fluorescence intensity, fluorescence competitive binding assay, OBP11 ([3]; ligand concentration 18, replicate 3): 21849 | Fluorescence intensity, fluorescence competitive binding assay, OBP11 ([3]; ligand concentration 20, replicate 1): 20792 | Fluorescence intensity, fluorescence competitive binding assay, OBP11 ([3]; ligand concentration 20, replicate 2): 21117 | Fluorescence intensity, fluorescence competitive binding assay, OBP11 ([3]; ligand concentration 20, replicate 3): 20999 | Fluorescence competitive binding assay, fluorescence intensity ([4]; ligand concentration 2): 60413 and 65968 and 63200 | Fluorescence competitive binding assay, fluorescence intensity ([4]; ligand concentration 4): 61250 and 61185 and 61320 | Fluorescence competitive binding assay, fluorescence intensity ([4]; ligand concentration 6): 60246 and 58949 and 59593 | Fluorescence competitive binding assay, fluorescence intensity ([4]; ligand concentration 8): 52502 and 56703 and 49181 | Fluorescence competitive binding assay, fluorescence intensity ([4]; ligand concentration 10): 59611 and 55127 and 57362 | Fluorescence competitive binding assay, fluorescence intensity ([4]; ligand concentration 12): 47975 and 49504 and 49931 | Fluorescence competitive binding assay, fluorescence intensity ([4]; ligand concentration 14): 42590 and 46739 and 44665 | Fluorescence competitive binding assay, fluorescence intensity ([4]; ligand concentration 16): 36927 and 42551 and 39754 | Fluorescence competitive binding assay, fluorescence intensity ([4]; ligand concentration 18): 35693 and 43209 and 41553 | Fluorescence competitive binding assay, fluorescence intensity ([4]; ligand concentration 20): 42100 and 41400 and 42823
Structure (SMILES): CC(C)COC(=O)CCCCC(=O)OCC(C)C [DA(diisobutyl adipate)]
